Results: PMC10610214 (Pharmaceuticals, 2023)

Assays:
[1] = molecular target: Aβ1-42 (Homo sapiens, UniProt P05067); test: TEM of Aβ1-42 self-aggregation; conditions: 4h 100 μM, Aβ1-42 5 μM, 48 h
Procedure: Transmission Electron Microscope (TEM) studies were performed as previously described. […] After 2 days, a copper mesh was used to adsorb the samples, then stained with phosphotungstic acid, and the Aβ1-42 self-aggregation by TEM was observed (Talos L1200C, Thermo Fisher Scientific, Waltham, MA, USA).

[2] = tested on: BV2 cells; test: Cytotoxicity in BV2 cells (MTT); type: cell-based
Procedure: The cytotoxicity and neuroprotective effects of the compounds on PC12 cells were evaluated by MTT assay. PC12 cells were seeded into a 96-well plate at a density of 5.0 × 10^3 cells per well. After the cells were incubated overnight, the old medium was discarded. The cells were incubated for another 24 h with fresh medium containing compounds at a concentration of 30 or 50 μM. A total of 20 μL of MTT solution (5 mg/mL, Sigma-Aldrich, Shanghai, China) was then added per well, and the cells were incubated for an additional 4 h. Afterwards, the supernatant was removed and 150 μL of DMSO was added to solubilize formazan crystals. The 96-well plate was placed on the shaker for 10–15 min, and then the absorbance at 492 nm was measured by a microplate reader.
The cytotoxicity of compounds on BV2 cells were evaluated by MTT assay and similar to those described in Section 2.5. The NO concentrations in medium were determined using Griess Reagent assay (Beyotime) in accordance with a previously reported method. Nitrite is reduced to nitrogen oxide using Griess Reagent I. Nitrogen oxide then reacts with Griess Reagent II forming a stable product that can be detected by its absorbance at […]. The two-step assay is simple, fast, and can detect nitrite levels as low as 1 nmol/well. BV2 cells were seeded into a 48-well plate at a density of 6.0 × 10^4 cells per well. […]

[3] = tested on: HepG2 cells; test: Hepatotoxicity in HepG2 cells (MTT); type: cell-based; conditions: 10, 30 and 50 μM
Procedure: (§1) The hepatotoxicity of compound 4h in normal AML-12 hepatocytes and HepG2 liver cancer cells was examined by MTT method. AML-12 cells and HepG2 cells were seeded into 96-well plates at a density of 5.0 × 10^3 cells per well, respectively. After the cells were incubated overnight, the old medium was discarded. The cells were incubated for 48 h with fresh medium containing various concentrations of the test compound. After 48 h of incubation, 20 μL of MTT (5 mg/mL) was added to each well and incubate for an additional 4 h. Formazan was dissolved with DMSO (150 μL). […]

[4] = tested on: iNOS; test: iNOS expression in LPS-stimulated BV2 cells (Western blot); type: cell-based; conditions: 1, 2, 4 μM
Procedure: BV2 cells were seeded into a 6-well plate at a density of 3.0 × 10^5 cells per well. After incubation overnight, the old medium was discarded. Then, the cells were pretreated with various concentrations (1, 2, and 4 μM) of 4h for 1 h and then co-incubated with LPS (1 μg/mL) for 24 h. After incubation was completed, the cells were washed twice with PBS, and 300 μL of cell lysis buffer (RIRA lysis buffer, phosphatase inhibitor, protease inhibitor, and PMSF) was added to each well. The cells were then incubated on ice for 30 min and centrifuged at 12,000 rpm at 4 °C for 30 min to collect the supernatant. The protein content in the supernatant was detected using the BCA protein detection kit (Beyotime, Shanghai, China). Total proteins were separated by 10% SDS-PAGE and then transferred from the gel to a PVDF membrane (Sigma-Aldrich, Shanghai, China). The membranes were blocked in TBST solution containing 5% skimmed milk for 2 h. Next, the membranes were washed three times (TBST) and incubated with primary antibody dilution (Cell Signaling Technologies, Boston, MA, USA) overnight at 4 °C. Then, they were washed another three times (TBST), incubated with the secondary antibody at room temperature for 90 min, and then washed three times with TBST. The blots were visualized by a chemiluminescence imager (Tanon 5200, Shanghai, China).

[5] = molecular target: T1, BuChE (Equus caballus, UniProt P81908); test: Reversibility of BuChE inhibition, dilution method; type: biochemical; conditions: for BuChE activity after dilution (reversibility): control 100
T1 construct: BuChE (from equine serum); purchased Sigma Chemical Company (St. Louis, MO, USA); host or cells: equine serum
T1 sequence (P81908 whole entry): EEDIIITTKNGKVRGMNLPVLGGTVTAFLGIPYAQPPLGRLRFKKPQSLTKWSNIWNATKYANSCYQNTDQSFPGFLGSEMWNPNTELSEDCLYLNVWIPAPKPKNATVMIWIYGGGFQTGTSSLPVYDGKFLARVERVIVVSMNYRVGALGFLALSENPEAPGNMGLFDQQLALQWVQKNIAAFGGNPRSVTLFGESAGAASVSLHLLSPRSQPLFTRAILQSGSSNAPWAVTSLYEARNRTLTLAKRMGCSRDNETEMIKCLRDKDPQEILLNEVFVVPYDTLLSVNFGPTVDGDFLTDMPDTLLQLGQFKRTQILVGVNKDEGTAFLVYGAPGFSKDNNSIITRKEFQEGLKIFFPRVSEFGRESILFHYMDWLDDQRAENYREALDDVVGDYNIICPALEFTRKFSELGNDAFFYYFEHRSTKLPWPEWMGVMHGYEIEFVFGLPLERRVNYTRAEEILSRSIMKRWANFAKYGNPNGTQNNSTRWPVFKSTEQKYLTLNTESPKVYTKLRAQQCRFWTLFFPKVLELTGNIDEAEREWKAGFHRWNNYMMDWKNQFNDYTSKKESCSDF
Procedure: The activities of the diluted residual enzymes were measured by Ellman’s modified method.
Reversibility studies were performed using a modified Ellman’s dilution method to measure the activity of the diluted residual enzyme. The AChE/BuChE (0.5 U/mL), ATCI/BTCI (0.01 M) and DTNB (0.01 M) were diluted with phosphate buffer pH = 7.4. […] At the end of incubation, 20 μL of DTNB solution was added to them. […] All the measured results are expressed as the mean ± SEM of the three independent experiments.

[6] = tested on: NO in BV2 cells; test: NO production in LPS-stimulated BV2 cells (Griess); type: cell-based; conditions: Mus musculus, BV-2, 24 h, read-out: NO inhibition IC50
Procedure: (§2) The cytotoxicity of compounds on BV2 cells were evaluated by MTT assay and similar to those described in Section 2.5. The NO concentrations in medium were determined using Griess Reagent assay (Beyotime) in accordance with a previously reported method. Nitrite is reduced to nitrogen oxide using Griess Reagent I. Nitrogen oxide then reacts with Griess Reagent II forming a stable product that can be detected by its absorbance at […]. The two-step assay is simple, fast, and can detect nitrite levels as low as 1 nmol/well. BV2 cells were seeded into a 48-well plate at a density of 6.0 × 10^4 cells per well. After the cells were incubated overnight, the old medium was discarded. Then, the cells were pretreated with various concentrations (10, 5, 1, 0.5, and 0.1 μM) of compounds for 1 h and then co-incubated with LPS (1 μg/mL, 30 μL/well) for 24 h. After 24 h, the cell supernatant (50 μL/well) was placed into a new 96-well plate for experiment. […] The absorbance at […] was measured by a microplate reader.

[7] = tested on: TNF-α in BV2 cells; test: TNF-α secretion in LPS-stimulated BV2 cells (ELISA); type: cell-based; conditions: Mus musculus, BV-2, 24 h, read-out: TNF-α inhibition IC50
Procedure: as §2
The contents of TNF-α and IL-β in the cell supernatant were measured via ELISA (Jyimei, Wuhan, China) following the manufacturer’s instructions.

[8] = tested on: AML-12 cells; test: Hepatotoxicity in AML-12 cells (MTT); type: cell-based; conditions: 10, 30 and 50 μM
Procedure: as §1

[9] = tested on: BV2 cells; test: LPS-induced ROS production in BV2 cells; type: cell-based; conditions: 4h 7.5, 15, 30 μM
Procedure: Intracellular ROS levels was detected by the ROS assay kit (Biyuntian Biotechnology, Hang Zhou, China). […] The control group involved culturing the BV2 microglia cells in normal culture media without any treatment. Then, the cells were washed with PBS (pH 7.2) and incubated with DCFH-DA at 37 °C for 20 min. Finally, cells were washed with DMEM and the fluorescence intensity was observed under confocal laser scanning microscope.

Chain of Aβ1-42 (P05067 672-713 limits assumed): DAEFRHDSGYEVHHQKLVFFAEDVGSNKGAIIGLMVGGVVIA

O=C1c2cc(NS(=O)(=O)c3ccccc3F)ccc2-n2c1nc1ccccc1c2=O [4h]
Morphology of Aβ1-42 aggregates (TEM) [1]: aggregation of Aβ1-42 samples was remarkably reduced | Cell Viability (% of Control) ([2]; 30 μM): 101.23 ± 1.82 % of control | Cell Viability (% of Control) ([2]; 50 μM): 97.44 ± 1.36 % of control | Hepatotoxicity in HepG2 cells [3]: had no toxicity | iNOS expression [4]: significantly decreased the expression of COX-2 and iNOS | Reversibility of BuChE inhibition ([5]; dilution method): reversible inhibitor | BuChE activity after dilution (reversibility) ([5]; final inhibitor 0.1 × IC50 after 100-fold dilution): 92.2 ± 0.52 | BuChE activity after dilution (reversibility) ([5]; final inhibitor 1 × IC50 after 100-fold dilution): 84.9 ± 1.2 | IC50 [6]: 620 ± 70 nM | IC50 [7]: 1310 ± 280 nM | Hepatotoxicity in AML-12 cells [8]: had no toxicity | Intracellular ROS levels in BV2 cells [9]: significantly reduced intracellular ROS levels
